From PubChem BioAssay AID1259407 (Chemical Carcinogenesis Research Information System (CCRIS), 2018)
The source made the active and inactive calls. How the calls were made is not given here.

Test system: CCRIS mutagenicity, Ames/micronucleus/aberration tests
Assay: CCRIS mutagenicity studies
[1] = Test System: AMES SALMONELLA TYPHIMURIUM, Strain/Indicator: TA1537, Metabolic Activation: HAMSTER, LIVER, S-9, AROCLOR 1254, Method: STANDARD PLATE
[2] = Test System: AMES SALMONELLA TYPHIMURIUM, Strain/Indicator: TA1537, Metabolic Activation: NONE, Method: STANDARD PLATE
[3] = Test System: AMES SALMONELLA TYPHIMURIUM, Strain/Indicator: TA1537, Metabolic Activation: RAT, LIVER, S-9, AROCLOR 1254, Method: STANDARD PLATE
[4] = Test System: AMES SALMONELLA TYPHIMURIUM, Strain/Indicator: TA100, Metabolic Activation: NONE, Method: PREINCUBATION

O.O.O.O=C([O-])[C@H]([O-])[C@@H]([O-])C(=O)[O-].O=C([O-])[C@H]([O-])[C@@H]([O-])C(=O)[O-].[K+].[K+].[Sb+3].[Sb+3]
mutagenic call (Test System: AMES SALMONELLA TYPHIMURIUM, Strain/Indicator: TA98, Metabolic Activation: HAMSTER, LIVER, S-9, AROCLOR 1254, Method: STANDARD PLATE): inactive; negative | mutagenic call (Test System: AMES SALMONELLA TYPHIMURIUM, Strain/Indicator: TA98, Metabolic Activation: NONE, Method: STANDARD PLATE): inactive; negative | mutagenic call (Test System: AMES SALMONELLA TYPHIMURIUM, Strain/Indicator: TA98, Metabolic Activation: RAT, LIVER, S-9, AROCLOR 1254, Method: STANDARD PLATE): inactive; negative | mutagenic call (Test System: AMES SALMONELLA TYPHIMURIUM, Strain/Indicator: TA100, Metabolic Activation: HAMSTER, LIVER, S-9, AROCLOR 1254, Method: STANDARD PLATE): inactive; negative | mutagenic call (Test System: AMES SALMONELLA TYPHIMURIUM, Strain/Indicator: TA100, Metabolic Activation: NONE, Method: STANDARD PLATE): inactive; negative | mutagenic call (Test System: AMES SALMONELLA TYPHIMURIUM, Strain/Indicator: TA100, Metabolic Activation: RAT, LIVER, S-9, AROCLOR 1254, Method: STANDARD PLATE): inactive; negative | mutagenic call (Test System: AMES SALMONELLA TYPHIMURIUM, Strain/Indicator: TA1535, Metabolic Activation: HAMSTER, LIVER, S-9, AROCLOR 1254, Method: STANDARD PLATE): inactive; negative | mutagenic call (Test System: AMES SALMONELLA TYPHIMURIUM, Strain/Indicator: TA1535, Metabolic Activation: NONE, Method: STANDARD PLATE): inactive; negative | mutagenic call (Test System: AMES SALMONELLA TYPHIMURIUM, Strain/Indicator: TA1535, Metabolic Activation: RAT, LIVER, S-9, AROCLOR 1254, Method: STANDARD PLATE): inactive; negative | mutagenic call [1]: inactive; negative | mutagenic call [2]: inactive; negative | mutagenic call [3]: inactive; negative | mutagenic call (Test System: AMES SALMONELLA TYPHIMURIUM, Strain/Indicator: TA1538, Metabolic Activation: HAMSTER, LIVER, S-9, AROCLOR 1254, Method: STANDARD PLATE): inactive; negative | mutagenic call (Test System: AMES SALMONELLA TYPHIMURIUM, Strain/Indicator: TA1538, Metabolic Activation: NONE, Method: STANDARD PLATE): inactive; negative | mutagenic call (Test System: AMES SALMONELLA TYPHIMURIUM, Strain/Indicator: TA1538, Metabolic Activation: RAT, LIVER, S-9, AROCLOR 1254, Method: STANDARD PLATE): inactive; negative | mutagenic call (Test System: MOUSE LYMPHOMA, Strain/Indicator: L5178Y (TK+/TK-), Metabolic Activation: NONE, Method: SUSPENSION/PLATE): active; positive. reevaluation of results: positive | mutagenic call (Test System: MOUSE LYMPHOMA, Strain/Indicator: L5178Y (TK+/TK-), Metabolic Activation: RAT, LIVER, S-9, AROCLOR 1254, Method: SUSPENSION/PLATE): active; positive. reevaluation of results: positive

CC1=C(O)C(=O)CO1
mutagenic call [4]: active; positive | mutagenic call (Test System: AMES SALMONELLA TYPHIMURIUM, Strain/Indicator: TA100, Metabolic Activation: RAT, LIVER, S-9, PHENOBARBITAL AND 5,6-BENZOFLAVONE, Method: PREINCUBATION): active; positive

CCCCCC=O
mutagenic call (Test System: CHINESE HAMSTER V-79, Strain/Indicator: V-79/6-THIOGUANINE (HGPRT), Metabolic Activation: NONE, Method: REPLATING): active; positive | mutagenic call (Test System: CHINESE HAMSTER V-79, Strain/Indicator: V-79/OUABAIN (NA/K), Metabolic Activation: NONE, Method: REPLATING): active; positive | mutagenic call (Test System: UDS HUMAN HEPATOCYTES, Strain/Indicator: THY INCORP, Metabolic Activation: NONE, Method: AUTORADIOGRAPHY): inactive; negative | mutagenic call (Test System: UDS RAT HEPATOCYTES, Strain/Indicator: THY INCORP, Metabolic Activation: NONE, Method: AUTORADIOGRAPHY): active; positive

Cn1c(-c2ccccc2)c(N=Nc2scc[n+]2C)c2ccccc21
mutagenic call [1]: active; positive | mutagenic call [2]: active; positive | mutagenic call [3]: active; positive | mutagenic call (Test System: Mouse lymphoma, Strain/Indicator: L5178Y (tk+/tk-), Metabolic Activation: None, Method: Suspension/plate): active; inconclusive (previous evaluation positive) | mutagenic call (Test System: Mouse lymphoma, Strain/Indicator: L5178Y (tk+/tk-), Metabolic Activation: Rat, Liver, S-9, Aroclor 1254, Method: Suspension/plate): active; inconclusive (previous evaluation positive)

CCCCN(N=O)C(=O)OCC
mutagenic call (Test System: AMES SALMONELLA TYPHIMURIUM, Strain/Indicator: TA98, Metabolic Activation: RAT, LIVER, S-9, KC500 OR PHENOBARBITAL, Method: LIQUID SUSPENSION): active; positive | mutagenic call (Test System: AMES SALMONELLA TYPHIMURIUM, Strain/Indicator: TA100, Metabolic Activation: RAT, LIVER, S-9, KC500 OR PHENOBARBITAL, Method: LIQUID SUSPENSION): active; positive

C/C=C1/C[C@@H](C)[C@](O)(CO)C(=O)OCC2=CCN3CC[C@@H](OC1=O)[C@@H]23
mutagenic call (Test System: AMES SALMONELLA TYPHIMURIUM, Strain/Indicator: TA97A, Metabolic Activation: RAT, LIVER, S-9, SODIUM PHENOBARBITAL AND BETA-NAPHTHOFLAVONE, Method: PREINCUBATION): inactive; negative | mutagenic call (Test System: AMES SALMONELLA TYPHIMURIUM, Strain/Indicator: TA97A, Metabolic Activation: RAT, LIVER, S-9, SODIUM PHENOBARBITAL AND BETA-NAPHTHOFLAVONE, Method: STANDARD PLATE): inactive; negative | mutagenic call (Test System: AMES SALMONELLA TYPHIMURIUM, Strain/Indicator: TA98, Metabolic Activation: RAT, LIVER, S-9, SODIUM PHENOBARBITAL AND BETA-NAPHTHOFLAVONE, Method: PREINCUBATION): inactive; negative | mutagenic call (Test System: AMES SALMONELLA TYPHIMURIUM, Strain/Indicator: TA98, Metabolic Activation: RAT, LIVER, S-9, SODIUM PHENOBARBITAL AND BETA-NAPHTHOFLAVONE, Method: STANDARD PLATE): inactive; negative | mutagenic call (Test System: AMES SALMONELLA TYPHIMURIUM, Strain/Indicator: TA100, Metabolic Activation: RAT, LIVER, S-9, SODIUM PHENOBARBITAL AND BETA-NAPHTHOFLAVONE, Method: PREINCUBATION): inactive; negative | mutagenic call (Test System: AMES SALMONELLA TYPHIMURIUM, Strain/Indicator: TA100, Metabolic Activation: RAT, LIVER, S-9, SODIUM PHENOBARBITAL AND BETA-NAPHTHOFLAVONE, Method: STANDARD PLATE): inactive; negative | mutagenic call (Test System: AMES SALMONELLA TYPHIMURIUM, Strain/Indicator: TA1535, Metabolic Activation: RAT, LIVER, S-9, SODIUM PHENOBARBITAL AND BETA-NAPHTHOFLAVONE, Method: PREINCUBATION): inactive; negative | mutagenic call (Test System: AMES SALMONELLA TYPHIMURIUM, Strain/Indicator: TA1535, Metabolic Activation: RAT, LIVER, S-9, SODIUM PHENOBARBITAL AND BETA-NAPHTHOFLAVONE, Method: STANDARD PLATE): inactive; negative | mutagenic call (Test System: AMES SALMONELLA TYPHIMURIUM, Strain/Indicator: TA1538, Metabolic Activation: RAT, LIVER, S-9, SODIUM PHENOBARBITAL AND BETA-NAPHTHOFLAVONE, Method: PREINCUBATION): inactive; negative | mutagenic call (Test System: AMES SALMONELLA TYPHIMURIUM, Strain/Indicator: TA1538, Metabolic Activation: RAT, LIVER, S-9, SODIUM PHENOBARBITAL AND BETA-NAPHTHOFLAVONE, Method: STANDARD PLATE): inactive; negative

CCCCN(C[C@@H](CO)OCc1ccccc1)N=O
mutagenic call [4]: active; positive | mutagenic call (Test System: AMES SALMONELLA TYPHIMURIUM, Strain/Indicator: TA100, Metabolic Activation: RAT, LIVER, S-9, PCB, Method: PREINCUBATION): active; positive
